Laboratory results: patent US20230145823A1 (priority 2020, published 2023)
Like-named read-outs stand apart in the source and are kept apart here.

Columns and labels:
[1] = tested on: COVID-19; conditions: cited from earlier work
[2] = tested on: interleukin-1 receptor antagonist (IL-1RA); assay: IL-1RA in conditioned medium of differentiated THP-1 cells, Multiplex assay using flow cytometry; format: cell-based; conditions: LPS and IFNγ, 48 h
Procedure: (§1) THP-1 cells (ATCC) were maintained in RPMI 1,640 medium supplemented with 2-mercaptoethanol at a final concentration of 0.05 mM and FBS at a final concentration of 10%. THP-1 cells were seeded in each well of a 12-well tissue culture plate at a density 0.5×10^6 cells/mL, one day before experiments. THP-1 monocytes were differentiated by 150 nM PMA (phorbol 12-myristate 13-acetate) for 24 h.
The levels of anti-inflammatory cytokines from the conditioned medium of differentiated THP-1 cells were measured after 48 h of stimulation with LPS and IFNγ by Multiplex assay using flow cytometry.

[3] = tested on: inducible nitric oxide synthase (iNOS); conditions: RAW264.7, LPS+IFNγ, 25 μM furosemide, 24 h
Procedure: Cells were washed twice with ice-cold PBS and harvested in RIPA buffer supplemented with a protease inhibitor cocktail. The whole-cell extracts were then centrifuged at 22,000×g for 20 min at 4° C. to remove cell debris. Protein concentrations were quantified using a Micro BCA protein assay kit. The absorbance was measured at 595 nm using a microplate reader. Equal amounts of cellular protein were separated by sodium dodecyl sulfate-polyacrylamide gel electrophoresis (SDS-PAGE) and transferred onto polyvinylidene difluoride (PVDF) membranes at 100 V for 90 min. The SDS-PAGE was performed with 10% polyacrylamide gel for iNOS and 12.5% for pro-IL-1β. The membranes were blocked for 1 h in Tris-buffered saline (TBS), pH 7.4, with 0.1% Tween-20 (TBS-T) containing 10% skim milk. The membrane blot was then incubated overnight at 4° C. with primary antibodies against iNOS (1:1,000), IL-1(3 (1:1,000), actin (1:5,000) and GAPDH (1:5,000) in TBS-T containing 5% skim milk. The membrane was washed with TBS-T 3×10 mins and incubated with goat anti-rabbit IgG-horseradish peroxidase (1:5,000) for 1 hour. After the washing step, the immunoblotting was visualized by chemiluminescence HRP-substrate.

[4] = tested on: NO; format: cell-based; conditions: RAW264.7 cells, LPS, 25 μM furosemide, 24 h
[5] = tested on: IL-6; assay: LPS-induced IL-6 production from SIM-A9 cells, ELISA; format: cell-based; conditions: SIM-A9 cells stimulated with LPS
Procedure: (§2) Cytokines were quantified using ELISA kits following the manufacturer's instructions. Briefly, the high-binding plates were coated at 100 μL/well with diluted capture antibodies (1:250) at 4° C. overnight. The coated plates were then blocked with the diluent for 1 h before assay. Each sample was diluted accordingly and added to the plates for a 2 h incubation period at room temperature. Plates were then washed with 250 μL/well PBS with 0.05% Tween-20 and incubated with detection antibodies (1:250 in assay diluent) for 1 h at room temperature. After another washing step, 1:250 diluted avidin-HRP (horseradish peroxidase) was added and incubated for 30 min. Next, 100 μL TMB-substrate (3,3′,5,5′-tetramethylbenzidine) was added and the plate was incubated in the dark until the signal was sufficiently developed. […]. Absorbance was measured at 450 nm with a correction of 570 nm using a plate reader.
(§3) SIM-A9 (ATCC) cells were maintained in Dulbecco's modified eagle medium: nutrient mixture F-12 (DMEM-F12) with 10% foetal bovine serum, 5% horse-serum and antibiotic-antimycotic. SIM-A9 cells were seeded 24 h before the experiment. Culturing medium was replaced with DMEM-F12 medium containing 5% FBS+2.5% horse serum with required LPS concentration (final volume was one mL/well). The conditioned media and lysates were harvested for cytokine and cell marker examination.
. […]

[6] = tested on: TNF-α; format: cell-based; conditions: RAW264.7 cells, LPS, 25 μM furosemide, 24 h
[7] = tested on: NO; assay: LPS-induced NO production from SIM-A9 cells, Griess assay; format: cell-based; conditions: SIM-A9 cells stimulated with LPS
Procedure: Nitric oxide production from the conditioned media of RAW264.7 and SIM-A9 cell cultures was examined by a Griess assay. Conditioned medium and sulfanilamide were mixed in a microwell plate to form a transient diazonium salt. Then, N-naphtyl-ethylenediamine was added to all wells to form a stable azo compound by incubating for 5-10 min in the dark at room temperature. The absorbance was measured between 520 nm and 550 nm. The concentration of NO production was quantified by being plotted against a standard curve.
as §3
. IL-1β plays a key role in modulating inflammatory response as a downstream pro-inflammatory marker of the TLR4 signaling pathway by using differentiated THP-1 monocytes. The expression of IL-1β precursor protein (pro-IL-1β) from THP-1 macrophage cells was studied using Western blot analysis. […]. […]

[8] = tested on: arginase; assay: Arginase in conditioned medium of differentiated THP-1 cells, Multiplex assay using flow cytometry; format: cell-based; conditions: LPS and IFNγ, 48 h
Procedure: as §1
(§4) . The levels of anti-inflammatory cytokines from the conditioned medium of differentiated THP-1 cells were measured after 48 h of stimulation with LPS and IFNγ by Multiplex assay using flow cytometry. […]

[9] = previous studies; cited from earlier work
[10] = tested on: TLR4; assay: LPS-induced TLR4 expression in RAW264.7 macrophage cells, flow cytometry; format: cell-based; conditions: RAW264.7 cells stimulated with LPS
Procedure: RAW264.7 cells were purchased from ATCC and maintained in Dulbecco's Modified Eagle's Medium (DMEM) containing foetal bovine serum (FBS) at a final concentration of 10%. RAW264.7 cells were seeded in 12-well plates at 0.25×10^6 cells/well seeding density, one day before experiments. […]; conditioned media and lysates were harvested for analysis.
Cells were harvested and re-suspended with staining buffer. Cells were stained with antibody (1:100) by incubating at 4° C. for 30 min in the dark. Stained cells were centrifuged, and the supernatant was discarded. The cell pellets were then re-suspended in cell flow buffer, transferred to FACS tubes and analyzed by flow cytometry within 48 h. To all cells in the experiment, Fc blocker was added.
LPS is recognized by the cell surface pattern-recognition receptors such as the toll-like receptor 4 protein (TLR4) and triggers downstream signaling pathways. LPS induces expression of the pro-inflammatory cytokine IFNγ. IFNγ is known to increase TLR4 expression which may then promote the response to LPS stimulation. […]

[11] = cited from earlier work
[12] = tested on: pro-IL-1β; assay: pro-IL-1β expression in differentiated THP-1 macrophages, Western blot; format: cell-based; conditions: PMA-differentiated THP-1 cells, LPS/IFNγ, 48 h
Procedure: as §1
Cells were washed twice with ice-cold PBS and harvested in RIPA buffer supplemented with a protease inhibitor cocktail. The whole-cell extracts were then centrifuged at 22,000×g for 20 min at 4° C. to remove cell debris. Protein concentrations were quantified using a Micro BCA protein assay kit. The absorbance was measured at 595 nm using a microplate reader. Equal amounts of cellular protein were separated by sodium dodecyl sulfate-polyacrylamide gel electrophoresis (SDS-PAGE) and transferred onto polyvinylidene difluoride (PVDF) membranes at 100 V for 90 min. The SDS-PAGE was performed with 10% polyacrylamide gel for iNOS and 12.5% for pro-IL-1β. The membranes were blocked for 1 h in Tris-buffered saline (TBS), pH 7.4, with 0.1% Tween-20 (TBS-T) containing 10% skim milk. […]

[13] = tested on: TNF-α; assay: LPS-induced TNF-α production from SIM-A9 cells, ELISA; format: cell-based; conditions: SIM-A9 cells stimulated with LPS
Procedure: as §2, §3
. […]

[14] = cited from earlier work; remark: listed apart in the source
[15] = tested on: IL-4; assay: IL-4 in conditioned medium of differentiated THP-1 cells, Multiplex assay using flow cytometry; format: cell-based; conditions: LPS and IFNγ, 48 h
Procedure: as §1, §4

[16] = 21 patients with severe COVID-19, within a few days
[17] = 21 patients with severe COVID-19
[18] = Grogono et al. 2018, nebulized 40 mg in 4 mL 0.9% saline, healthy adults, multiple dosing per day

Q: With “tocilizumab: Roche's tocilizumab (Actemra), an IL-6 inhibitor” as the compound, how does the all other symptoms [1, 16] read?
A: improved remarkably

Q: And the fevers [1, 16]?
A: returned to normal

Q: What about the adverse reactions [1, 17] of the same compound?
A: no obvious adverse reactions

Q: What about the “patients who lowered their oxygen intake” value [1, 17] of the same compound?
A: 75%

Q: What about the “average time to discharge following treatment” value ([1]; nineteen discharged patients) of the same compound?
A: 13.5 days

Q: For `NS(=O)(=O)c1cc(C(=O)O)c(NCc2ccco2)cc1Cl` [furosemide, 4-chloro-N-furfuryl-5-sulfamoylanthranilic acid], which “expression of IL-1RA” value [2] is on record?
A: induces

Q: What about the “expression of iNOS” value [3] of the same compound?
A: suppress

Q: And the “production of NO” value [4]?
A: significantly decreased

Q: And the “production of NO” value ([4]; listed as Furosemide)?
A: decreases

Q: What about the “production of IL-6” value [5] of the same compound?
A: significantly reduced

Q: And the “production of TNF-α” value [6]?
A: significantly decreased

Q: What about the “production of TNF-α” value ([6]; listed as Furosemide) of the same compound?
A: decreases

Q: What about the “production of NO” value [7] of the same compound?
A: significantly reduced

Q: And the expression of arginase [8]?
A: induces

Q: And the “time to be shuttled from the lung and excreted” value [9]?
A: 4 to 6 h

Q: What about the “LPS-induced TLR4 expression (TLR4+ cell population)” value [10] of the same compound?
A: completely blocked

Q: What about the “LPS-induced TLR4 expression (TLR4+ cell population)” value ([10]; listed as Furosemide) of the same compound?
A: significantly decreases

Q: And the “relief of experimentally induced air hunger” value [11, 18]?
A: effective relief

Q: And the untoward effects [11, 18]?
A: no untoward effects

Q: And the “dose shown safe by inhalation” value ([11]; inhalation, previous studies)?
A: up to 120 mg per dose

Q: What about the “lung IL-6, IL-8, and TNF-α levels” value ([11]; inhaled furosemide, patients with respiratory conditions) of the same compound?
A: reduction

Q: What about the urge to urinate ([11]; patients receiving inhaled furosemide up to 40 mg) of the same compound?
A: no increase

Q: And the “expression of pro-IL-1β” value [12]?
A: significantly decreases

Q: And the “production of TNF-α” value [13]?
A: significantly reduced

Q: What about the solution concentration achievable ([14]; non-salt furosemide, aqueous isotonic saline, pH between 8.0 and 9.3) of the same compound?
A: 10 mg/mL

Q: What about the solution concentration achievable ([14]; weakly basic buffer solution (pH 8)) of the same compound?
A: 10 mg/mL

Q: And the “expression of IL-4” value [15]?
A: induces
